Measurements reported in publication PMC8058733, “A pain killer without analgesic tolerance designed by co-targeting PSD-95-nNOS interaction and α2-containning GABAARs” (Theranostics, 2021).

Key:
[1] = molecular target: T1, PSD-95-nNOS complex (Rattus norvegicus, UniProt P29476); assay: Co-IP of PSD-95-nNOS complex levels in the spinal dorsal horn after SNL; assay type: in vivo; details: SNL rats, ZL006 10 mg/kg, i.v.
T1 construct: dorsal spinal cord tissues (L4 and L5) were lysed in 400 μl RIPA; from tissue; host or cells: rat dorsal spinal cord (L4 and L5), SNL model
T1 sequence (P29476 whole entry, one chain of several): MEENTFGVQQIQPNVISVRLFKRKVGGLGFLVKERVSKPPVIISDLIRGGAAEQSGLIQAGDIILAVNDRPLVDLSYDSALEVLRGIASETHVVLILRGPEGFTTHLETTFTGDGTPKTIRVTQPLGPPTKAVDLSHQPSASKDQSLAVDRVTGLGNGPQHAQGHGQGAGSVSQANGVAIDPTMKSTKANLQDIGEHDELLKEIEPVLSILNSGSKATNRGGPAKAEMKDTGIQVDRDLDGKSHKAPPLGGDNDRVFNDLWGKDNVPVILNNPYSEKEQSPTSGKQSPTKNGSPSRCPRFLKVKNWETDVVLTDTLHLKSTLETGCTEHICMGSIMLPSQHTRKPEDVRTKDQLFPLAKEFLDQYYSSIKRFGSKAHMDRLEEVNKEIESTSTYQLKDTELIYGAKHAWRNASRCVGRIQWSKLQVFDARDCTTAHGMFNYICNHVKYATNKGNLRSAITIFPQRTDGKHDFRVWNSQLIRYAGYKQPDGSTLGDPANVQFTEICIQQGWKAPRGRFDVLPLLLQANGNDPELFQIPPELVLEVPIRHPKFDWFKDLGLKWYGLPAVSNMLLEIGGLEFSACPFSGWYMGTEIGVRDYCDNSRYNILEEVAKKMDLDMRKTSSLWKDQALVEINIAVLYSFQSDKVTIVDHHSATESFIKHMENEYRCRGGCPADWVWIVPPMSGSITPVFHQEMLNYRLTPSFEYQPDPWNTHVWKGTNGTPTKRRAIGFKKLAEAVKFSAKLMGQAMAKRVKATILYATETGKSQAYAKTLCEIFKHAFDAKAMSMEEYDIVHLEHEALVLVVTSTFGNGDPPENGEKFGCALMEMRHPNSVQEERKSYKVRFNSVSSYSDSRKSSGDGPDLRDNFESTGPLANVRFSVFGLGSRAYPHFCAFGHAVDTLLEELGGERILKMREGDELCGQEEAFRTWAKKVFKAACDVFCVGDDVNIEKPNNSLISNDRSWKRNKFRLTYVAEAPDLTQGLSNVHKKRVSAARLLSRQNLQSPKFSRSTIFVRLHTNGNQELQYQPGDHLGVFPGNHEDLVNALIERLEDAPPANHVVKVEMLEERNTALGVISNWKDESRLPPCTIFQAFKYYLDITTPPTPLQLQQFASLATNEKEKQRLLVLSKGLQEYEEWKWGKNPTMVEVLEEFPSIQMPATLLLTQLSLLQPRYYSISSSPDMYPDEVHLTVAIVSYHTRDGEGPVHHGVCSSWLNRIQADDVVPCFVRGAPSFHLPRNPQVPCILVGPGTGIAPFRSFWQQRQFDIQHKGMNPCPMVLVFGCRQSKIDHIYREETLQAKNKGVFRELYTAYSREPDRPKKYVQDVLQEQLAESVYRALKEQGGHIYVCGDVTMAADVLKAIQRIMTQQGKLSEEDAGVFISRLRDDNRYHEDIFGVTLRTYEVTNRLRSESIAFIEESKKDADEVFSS

[2] = test system: SNL-induced mechanical hyperalgesia; assay: SNL-induced mechanical hyperalgesia, paw withdrawal threshold; assay type: in vivo, rat; details: SNL rats, ZL006 0.2 mg/d intrathecal infusion × 11 days
Procedure: (§1) Neuropathic pain was induced by segmental spinal nerve ligation (SNL). Animals were anesthetized with isoflurane. After the loss of righting reflex, the animal was fixed in the prone position. The SNL model was prepared as described previously: a median skin incision with about 3-5 cm length in L4-S2 level of the mouse back was made, the muscles next to the vertebrae till the sixth lumbar protruding were separated, the L5/L6 joint protruding on the right side was exposed and excised, and L6 processus transversus was partially split so that the L4-L6 spinal nerves on the right side were exposed. L5 nerve was gently isolated and tightly ligated with 5-0 silk thread. The wound was closed with 4-0 silk thread suture and covered with iodine solution. After nerve ligation, animals with signs of paw clonus or autotomy were excluded from further experiments.
(§2) Osmotic minipumps (models 1004 for mouse and 2ML4 for rat; Alzet) and intrathecal cannulas (0.61 mm outer diameter and 0.28 mm inner diameter for mouse, 0.99 mm outer diameter and 0.58 mm inner diameter for rat) were filled with a solution of PBS. Cannulas were inserted into the subarachnoid space through the space between the L5 and L6 vertebrae and the tip of the catheter was implanted at the L5 spinal segmental level.
For rats, the threshold for 50% paw withdrawal (50% PWT) response to mechanical stimulus was assessed through a dynamic plantar apparatus (Ugo Basile, Italy). The 50% PWT refers to that the probability of paw withdrawal response to repeated mechanical stimulus is 50%. Rats were placed individually in a plastic cage (17 × 15 × 15 cm) with a wire mesh bottom which allowed full access to the paws. Behavioral accommodation was allowed for 15-20 min until cage exploration and major grooming activities ceased. A maximal cut-off of 50g/50s was set to prevent tissue damage. To record the PWT in response to mechanical stimulus, each rat was measured five times with a 5-min interval, and the mean value was recorded after excluding maximal and minimum values. The experimental procedures were performed in a double-blind manner.

[3] = test system: SNL-induced thermal hyperalgesia; assay: SNL-induced thermal hyperalgesia, paw withdrawal latency (Hargreaves); assay type: in vivo, rat; details: SNL rats, ZL006 0.2 mg/d intrathecal infusion × 11 days
Procedure: as §1
Osmotic minipumps (models 1004 for mouse and 2ML4 for rat; Alzet) and intrathecal cannulas (0.61 mm outer diameter and 0.28 mm inner diameter for mouse, 0.99 mm outer diameter and 0.58 mm inner diameter for rat) were filled with a solution of PBS. […]
(§3) Paw withdrawal latency (PWL) response to thermal stimulus was assessed through the Hargreaves test. […] To record the PWL in response to thermal stimulus, each animal was measured five times with a 5-min interval, and the mean value was recorded after excluding maximal and minimum values. […]

[4] = test system: SNL-induced mechanical hyperalgesia; assay: SNL-induced mechanical hyperalgesia, von Frey; assay type: in vivo, mice; details: WT and nNOS-/- mice, ZL006 i.v., 20 mg/kg
Procedure: as §1
For mice, the threshold for 50% PWT response to mechanical stimulus was quantified by assessing the paw withdrawal threshold using von Frey filaments (Touch-Test TM Sensory Evaluator, North coast Medical, Inc.). Mice were placed individually in a plastic cage (4.5 × 5 × 11 cm) with a wire mesh bottom which allowed full access to the paws. Behavioral accommodation was allowed for 20-30 min until cage exploration and major grooming activities ceased. Mechanical threshold was measured by applying a von Frey filament to the ventral surface of the right hind paw until a positive sign of pain behavior was elicited. The paradigm for assessing the threshold was as follows. Von Frey filaments with logarithmically incremental stiffness (0.02-2 g) were applied serially to the paw by the up-down method. The filaments were presented, in ascending order of strength, perpendicular to the plantar surface with sufficient force to causes light bending against the paw and held for 4s. A positive response was noted if the paw was sharply withdrawn. Flinching immediately upon removal of the hair was also considered a positive response. The 2-g filament was selected as the upper limit cut-off for testing. If there was no response at 2-g filament, animals were assigned this cut-off value. The pattern of positive and negative withdrawal responses was converted to 50% threshold according to the formula: 50% PWT = 10 log (X) + κδ. X = value (in log unit) of the final von Frey hair used; κ is correction factors based on the pattern of responses from the calibration table; δ = mean difference in log units between stimuli (here, 0.224).

[5] = test system: SNL-induced thermal hyperalgesia; assay: SNL-induced thermal hyperalgesia, paw withdrawal latency; assay type: in vivo, mice; details: WT and nNOS-/- mice, ZL006 i.v., 20 mg/kg
Procedure: as §1, with “The wound was closed with 4-0 silk thread suture and covered with iodine solution. After nerve ligation, animals with signs of paw clonus or autotomy were excluded from further experiments.” left out
as §3
(A) Time course of SNL-induced thermal hyperalgesia after treating with ZL006-05 (60 mg/kg, i.g.) in mice. Paw withdrawal latency response to thermal stimulation was detected at 0, 1, 2, 4, 6, 8, 10, 12 and 24 h after drug administration. ( B) Areas under the curve of paw withdrawal latency 0-24 h after treatment calculated from ( A) (F (1,16) = 43.07, ***p < 0.001, two-tailed t-test, n = 9). […]

[6] = test system: laminae I excitatory neurons in the SDH; assay: mIPSCs/mEPSCs recordings from acute spinal slices of chronically treated rats; assay type: in vivo, rat; details: SNL rats, ZL006 0.2 mg/d intrathecal × 11 days
Excerpt: as §2
All solutions were bubbled with 95% O2 -5% CO2.
For mPSCs measurements, whole-cell recordings were made from putative excitatory neurons in superficial dorsal horn using low-resistance pipettes (4-8 MΩ). Before mPSCs measurements, excitatory neurons were distinguished from inhibitory neurons by firing pattern analysis according to the established relationship between neuronal firing pattern and its neurotransmitter phenotype, [32]-[34] For mEPSCs measurement, the membrane potential was held at -60 mV. […] Tetrodotoxin (0.5 μM) and bicuculline (20 μM) were added to block action potentials and GABAA receptor-mediated currents respectively. For mIPSCs measurement, the membrane potential was held at -70 mV, microelectrodes were filled with internal pipette solution containing CsCl 140, HEPES 10.0, MgATP 4.0, NaGTP 3.0, EGTA 1.0, MgCl2 1.0, CaCl2 0.3 (in mM). […]. […] Each recording lasts more than 5 min. Data were analyzed using Mini software. Up to 120 events from each neuron were selected at a fixed sampling interval to generate cumulative probability.

[7] = test system: neuropathic pain; design: method as in PMID 32632774; details: treatment of neuropathic pain, chronic use; cited from earlier work

O=C(O)c1ccc(NCc2cc(Cl)cc(Cl)c2O)cc1O [ZL006]
PSD-95-nNOS complex level in the SDH [1]: reversed the SNL-induced upregulation of PSD-95-nNOS interaction
Antinociceptive effect on mechanical hyperalgesia during chronic use (tolerance) [2]: decreased dramatically at d 7 and d 11, compared to d 1
Antinociceptive effect on thermal hyperalgesia during chronic use (tolerance) [3]: decreased dramatically at d 7 and d 11, compared to d 1
Effect on SNL-induced mechanical hyperalgesia [4]: attenuated both mechanical and thermal hyperalgesia markedly in WT but not in nNOS^-/- mice
Effect on SNL-induced thermal hyperalgesia [5]: attenuated both mechanical and thermal hyperalgesia markedly in WT but not in nNOS^-/- mice
mEPSCs [6]: did not affect SNL-induced increase in miniature excitatory postsynaptic currents (mEPSCs)
mIPSCs frequency and amplitude ([6]; vs vehicle): significantly lower than that in vehicle-treated rats
Analgesic tolerance when used chronically [7]: cause obvious analgesic tolerance
